Experimental data: US20090311217A1, “3-SUBSTITUTED-1H-INDOLE COMPOUNDS, THEIR USE AS MTOR KINASE AND PI3 KINASE INHIBITORS, AND THEIR SYNTHESES” (priority 2008, published 2009)
Read-outs that look alike come from different tables or passages of the source. Values belong to the molecule of their own block, whether it stands above or below them.

How the values were obtained:
[1] = target: PI3K-alpha (Homo sapiens, UniProt P42336); test: PI3K-alpha fluorescence polarization assay; assay type: biochemical
[2] = target: PI3K-gamma (Homo sapiens, UniProt P48736); test: PI3K-gamma fluorescence polarization assay; assay type: biochemical
Outline: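 Enzyme 5 ng; substrate diC8-PI(4,5)P2 2.5 μM; ATP 25 μM; 5 mM HEPES pH 7, 2.5 mM MgCl2; DMSO ≤2%; 1 h, 25° C. Quench 10 mM EDTA. Detect with GRP1 PH domain 100 nM + TMR-IP4 probe 5 nM by polarization.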

PI3K-alpha, sequence (P42336 whole entry, species assumed): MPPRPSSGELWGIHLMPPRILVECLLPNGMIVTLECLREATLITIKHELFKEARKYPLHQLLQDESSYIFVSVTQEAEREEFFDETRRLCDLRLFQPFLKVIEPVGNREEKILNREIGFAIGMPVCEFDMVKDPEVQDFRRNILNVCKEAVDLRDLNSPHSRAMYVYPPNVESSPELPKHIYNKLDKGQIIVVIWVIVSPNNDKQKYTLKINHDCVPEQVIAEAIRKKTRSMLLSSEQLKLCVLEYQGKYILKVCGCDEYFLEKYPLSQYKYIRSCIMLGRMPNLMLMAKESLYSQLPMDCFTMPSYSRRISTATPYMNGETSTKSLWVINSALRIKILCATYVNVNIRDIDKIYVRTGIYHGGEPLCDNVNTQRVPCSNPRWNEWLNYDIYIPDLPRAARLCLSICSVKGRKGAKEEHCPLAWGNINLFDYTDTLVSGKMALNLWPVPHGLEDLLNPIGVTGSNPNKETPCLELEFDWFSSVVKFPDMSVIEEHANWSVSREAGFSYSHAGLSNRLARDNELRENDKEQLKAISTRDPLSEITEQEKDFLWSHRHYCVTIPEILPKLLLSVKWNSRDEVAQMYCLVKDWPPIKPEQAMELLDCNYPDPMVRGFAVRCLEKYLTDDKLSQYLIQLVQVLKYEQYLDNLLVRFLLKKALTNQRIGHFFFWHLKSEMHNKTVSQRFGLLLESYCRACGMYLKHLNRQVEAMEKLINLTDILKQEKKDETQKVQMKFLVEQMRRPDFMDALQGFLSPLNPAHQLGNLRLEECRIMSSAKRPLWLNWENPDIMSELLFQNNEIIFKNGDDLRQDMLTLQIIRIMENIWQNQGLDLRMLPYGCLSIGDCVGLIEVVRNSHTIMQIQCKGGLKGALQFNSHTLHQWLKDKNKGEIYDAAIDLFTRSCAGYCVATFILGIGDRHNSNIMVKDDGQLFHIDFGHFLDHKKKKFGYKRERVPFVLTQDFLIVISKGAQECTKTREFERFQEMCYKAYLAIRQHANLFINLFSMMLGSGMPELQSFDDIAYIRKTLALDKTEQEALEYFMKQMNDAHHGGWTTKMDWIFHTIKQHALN
PI3K-alpha, sequence (P27986 whole entry partner, species assumed): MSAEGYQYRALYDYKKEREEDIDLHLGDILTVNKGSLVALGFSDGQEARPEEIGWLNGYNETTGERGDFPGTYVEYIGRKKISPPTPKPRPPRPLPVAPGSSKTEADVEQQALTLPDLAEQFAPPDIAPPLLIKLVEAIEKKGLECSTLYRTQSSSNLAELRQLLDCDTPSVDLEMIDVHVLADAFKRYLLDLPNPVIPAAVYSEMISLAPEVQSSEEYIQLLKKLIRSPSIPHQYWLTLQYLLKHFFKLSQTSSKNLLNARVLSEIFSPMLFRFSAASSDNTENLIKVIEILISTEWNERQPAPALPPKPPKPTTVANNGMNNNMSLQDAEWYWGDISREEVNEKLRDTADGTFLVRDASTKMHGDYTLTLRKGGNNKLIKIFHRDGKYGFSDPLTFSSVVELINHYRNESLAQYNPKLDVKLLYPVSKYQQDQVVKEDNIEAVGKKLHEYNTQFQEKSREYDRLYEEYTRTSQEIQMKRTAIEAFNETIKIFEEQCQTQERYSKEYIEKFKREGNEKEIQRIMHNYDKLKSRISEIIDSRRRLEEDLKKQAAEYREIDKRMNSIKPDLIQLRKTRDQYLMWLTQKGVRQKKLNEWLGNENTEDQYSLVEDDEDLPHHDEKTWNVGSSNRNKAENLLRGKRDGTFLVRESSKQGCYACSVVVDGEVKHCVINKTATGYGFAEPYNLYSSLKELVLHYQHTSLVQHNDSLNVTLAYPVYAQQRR
PI3K-gamma, sequence (P48736 whole entry, species assumed, the tested form may be a part): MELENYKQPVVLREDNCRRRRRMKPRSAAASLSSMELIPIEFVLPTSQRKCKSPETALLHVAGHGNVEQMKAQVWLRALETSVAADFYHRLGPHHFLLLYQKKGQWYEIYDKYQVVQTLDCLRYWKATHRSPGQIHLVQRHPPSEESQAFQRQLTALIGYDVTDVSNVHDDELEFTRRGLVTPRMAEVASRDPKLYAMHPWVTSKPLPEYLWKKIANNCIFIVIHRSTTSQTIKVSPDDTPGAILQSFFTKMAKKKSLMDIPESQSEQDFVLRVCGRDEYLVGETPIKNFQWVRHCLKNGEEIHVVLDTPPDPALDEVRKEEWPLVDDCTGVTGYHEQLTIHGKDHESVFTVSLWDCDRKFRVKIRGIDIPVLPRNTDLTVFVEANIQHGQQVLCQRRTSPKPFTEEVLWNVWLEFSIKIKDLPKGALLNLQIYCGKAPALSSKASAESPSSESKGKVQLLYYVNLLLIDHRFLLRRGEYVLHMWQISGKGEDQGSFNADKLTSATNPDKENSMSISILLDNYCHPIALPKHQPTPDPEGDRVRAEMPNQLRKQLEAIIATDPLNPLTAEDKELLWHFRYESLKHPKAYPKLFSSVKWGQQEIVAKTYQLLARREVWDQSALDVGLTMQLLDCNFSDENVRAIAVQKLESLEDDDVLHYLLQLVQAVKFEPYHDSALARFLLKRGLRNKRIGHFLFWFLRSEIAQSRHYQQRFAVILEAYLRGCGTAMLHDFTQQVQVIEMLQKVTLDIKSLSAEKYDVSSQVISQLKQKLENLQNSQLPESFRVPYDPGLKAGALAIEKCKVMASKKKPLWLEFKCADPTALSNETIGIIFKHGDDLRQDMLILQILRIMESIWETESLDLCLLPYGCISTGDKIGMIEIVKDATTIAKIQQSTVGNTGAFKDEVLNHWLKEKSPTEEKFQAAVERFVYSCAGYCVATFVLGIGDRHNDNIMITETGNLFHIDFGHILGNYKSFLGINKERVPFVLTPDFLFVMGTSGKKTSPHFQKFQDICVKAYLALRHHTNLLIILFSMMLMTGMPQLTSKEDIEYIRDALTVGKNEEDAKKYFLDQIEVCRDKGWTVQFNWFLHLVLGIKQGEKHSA

Molecule: COc1ccc2c(c1)c(/C=C1\Oc3ccc(CO)cc3C1=O)cn2CCN1CCN(C)CC1 [Compound 541, (2Z)-5-(hydroxymethyl)-2-({5-methoxy-1-[2-(4-methylpiperazin-1-yl)ethyl]-1Hindol-3-yl}methylene)-1-benzofuran-3(2H)-one]
IC50 ([1]; read-out: PI3Kα Avg. IC50): 1380 nM
IC50 ([2]; PI3Kγ Avg. IC50): 9100 nM

Molecule: CCc1c(/C=C2\Oc3cc(O)cc(O)c3C2=O)c2cc(OC)ccc2n1CCCC#N [Compound 493, 4-{3-[(Z)-(4,6-dihydroxy-3-oxo-1-benzofuran-2(3H)-ylidene)methyl]-2-ethyl-5-methoxy-1H-indol-1-yl}butanenitrile]
IC50 ([1]; read-out: PI3Kα Avg. IC50): 3 nM
IC50 ([2]; PI3Kγ Avg. IC50): 15.5 nM

Molecule: CNC(=O)Nc1ccc2c(c1)C(=O)/C(=C/c1c(C)n(CCN3CCN(C)CC3)c3ccc(OC)cc13)O2 [Compound 556, 1-[(2Z)-2-({5-methoxy-2-methyl-1-[2-(4-methylpiperazin-1-yl)ethyl]-1H-indol-3-yl}methylene)-3-oxo-2,3-dihydro-1-benzofuran-5-yl]-3-methylurea]
IC50 ([1]; read-out: PI3Kα Avg. IC50): 2.15 nM
IC50 ([2]; PI3Kγ Avg. IC50): 835 nM

Molecule: 6,7-dihydroxy-2-({5-methoxy-2-methyl-1-[4-(4-methylpiperazin-1-yl)butyl]-1H-indol-3-yl}methylene)-1-benzofuran-3(2H)-one [Example 132]
IC50 ([1]; read-out: PI3Kα Avg. IC50): 337 nM
IC50 ([2]; read-out: PI3Kγ Avg. IC50): 4150 nM

Molecule: COc1ccc2c(c1)c(/C=C1\Oc3cc(O)cc(O)c3C1=O)cn2CCCC#N [Compound 510, 4-{3-[(Z)-(4,6-dihydroxy-3-oxo-1-benzofuran-2(3H)-ylidene)methyl]-5-methoxy-1Hindol-1-yl}butanenitrile]
IC50 ([1]; read-out: PI3Kα Avg. IC50): 8 nM
IC50 ([2]; PI3Kγ Avg. IC50): 56 nM

Molecule: CNC(=O)Nc1ccc2c(c1)C(=O)/C(=C/c1c[nH]c3c(/C=C/CN4CCN(C)CC4)cc(OC)cc13)O2 [Compound 594, 1-[(2Z)-2-({5-methoxy-7-[(1E)-3-(4-methylpiperazin-1-yl)prop-1-en-1-yl]-1Hindol-3-yl}methylene)-3-oxo-2,3-dihydro-1-benzofuran-5-yl]-3-methylurea]
IC50 ([1]; read-out: PI3Kα Avg. IC50): 73.5 nM
IC50 ([2]; PI3Kγ Avg. IC50): 2200 nM

Molecule: COc1ccc2c(c1)c(/C=C1\Oc3ccc(NC(=O)NCCN)cc3C1=O)c(-c1ccccc1)n2CCN1CCN(C)CC1 [Compound 576, 1-(2-aminoethyl)-3-[(2Z)-2-({5-methoxy-1-[2-(4-methylpiperazin-1-yl)ethyl]-2-phenyl-1H-indol-3-yl}methylene)-3-oxo-2,3-dihydro-1-benzofuran-5-yl]urea]
IC50 ([1]; read-out: PI3Kα Avg. IC50): 0.6 nM
IC50 ([2]; PI3Kγ Avg. IC50): 27.5 nM

Molecule: Cn1c(-c2ccccc2)c(/C=C2\Oc3cc(O)cc(O)c3C2=O)c2c(N)cccc21 [Compound 521, (2Z)-2-[(4-amino-1-methyl-2-phenyl-1H-indol-3-yl)methylene]-4,6-dihydroxy-1-benzofuran-3(2H)-one]
IC50 ([1]; read-out: PI3Kα Avg. IC50): 2470 nM
IC50 ([2]; PI3Kγ Avg. IC50): 8510 nM

Molecule: CNC(=O)Nc1ccc2c(c1)C(=O)/C(=C/c1c(-c3c(C)noc3C)[nH]c3ccc(OC)cc13)O2 [Compound 581, 1-[(2Z)-2-{[2-(3,5-dimethylisoxazol-4-yl)-5-methoxy-1H-indol-3-yl]methylene}-3-oxo-2,3-dihydro-1-benzofuran-5-yl]-3-methylurea]
IC50 ([1]; read-out: PI3Kα Avg. IC50): 2 nM
IC50 ([2]; PI3Kγ Avg. IC50): 26.5 nM

Molecule: CNC(=O)c1ccc2c(c1)C(=O)/C(=C/c1cn(CCCN(C)C)c3ccc(OC)cc13)O2 [Compound 539, (2Z)-2-({1-[3-(dimethylamino)propyl]-5-methoxy-1H-indol-3-yl}methylene)-Nmethyl-3-oxo-2,3-dihydro-1-benzofuran-5-carboxamide]
IC50 ([1]; read-out: PI3Kα Avg. IC50): > 10000 nM
IC50 ([2]; PI3Kγ Avg. IC50): > 10000 nM

Molecule: O=C1/C(=C/c2c(-c3ccc(F)cc3)[nH]c3ccccc23)Oc2c(O)cccc21 [Example 68, (2Z)-2-{[2-(4-fluorophenyl)-1H-indol-3-yl]methylene}-7-hydroxy-1-benzofuran-3(2H)-one]
IC50 ([1]; PI3Kα Avg. IC50): 481 nM
IC50 ([2]; PI3Kγ Avg. IC50): 486 nM

Molecule: COc1ccc2c(c1)c(/C=C1\Oc3ccc(NC(=O)NCCCN(C)C)cc3C1=O)cn2CCN1CCN(C)CC1 [Compound 569, 1-[3-(dimethylamino)propyl]-3-[(2Z)-2-({5-methoxy-1-[2-(4-methylpiperazin-1-yl)ethyl]-1H-indol-3-yl}methylene)-3-oxo-2,3-dihydro-1-benzofuran-5-yl]urea]
IC50 ([1]; read-out: PI3Kα Avg. IC50): 242 nM
IC50 ([2]; PI3Kγ Avg. IC50): 6500 nM

Molecule: O=C1/C(=C/c2c(-c3ccc(F)cc3)[nH]c3ccccc23)Sc2ccccc21 [Example 277, (2Z)-2-{[2-(4-fluorophenyl)-1H-indol-3-yl]methylene}-1-benzothiophen-3(2H)-one]
IC50 ([1]; read-out: PI3Kα Avg. IC50): 268 nM
IC50 ([2]; PI3Kγ Avg. IC50): 264 nM

Molecule: 6,7-dihydroxy-2-[(1-{4-[4-(2-hydroxyethyl)piperazin-1-yl]butyl}-5-methoxy-2-methyl-1H-indol-3-yl)methylene]-1-benzofuran-3(2H)-one [Example 134]
IC50 ([1]; read-out: PI3Kα Avg. IC50): 204 nM
IC50 ([2]; read-out: PI3Kγ Avg. IC50): 3170 nM

The remaining lines, values ahead:

IC50 ([1]; read-out: PI3Kα Avg. IC50): > 10000 nM
IC50 ([2]; PI3Kγ Avg. IC50): > 10000 nM
Molecule: COc1ccc2[nH]cc(/C=C3\Oc4ccc(C#N)cc4C3=O)c2c1 [Compound 523, (2Z)-2-[(5-methoxy-1H-indol-3-yl)methylene]-3-oxo-2,3-dihydro-1-benzofuran-5-carbonitrile]

IC50 ([1]; read-out: PI3Kα Avg. IC50): 3830 nM
IC50 ([2]; PI3Kγ Avg. IC50): > 10000 nM
Molecule: COc1ccc2[nH]c(C)c(CC3Oc4cc(O)cc(O)c4C3=O)c2c1 (stereo not shown) [Example 119, 4,6-dihydroxy-2-[(5-methoxy-2-methyl-1H-indol-3-yl)methyl]-1-benzofuran-3(2H)-one]

IC50 ([1]; read-out: PI3Kα Avg. IC50): 48 nM
IC50 ([2]; PI3Kγ Avg. IC50): 1890 nM
Molecule: COc1cc(/C=C/CN2CCCCC2)c2[nH]cc(/C=C3\Oc4cc(O)ccc4C3=O)c2c1 [Compound 555, (2Z)-6-hydroxy-2-({5-methoxy-7-[(1E)-3-piperidin-1-ylprop-1-en-1-yl]-1H-indol-3-yl}methylene)-1-benzofuran-3(2H)-one]

IC50 ([1]; read-out: PI3Kα Avg. IC50): 19.5 nM
IC50 ([2]; PI3Kγ Avg. IC50): 712 nM
Molecule: CNC(=O)Nc1ccc2c(c1)C(=O)/C(=C/c1c(C)n(CCN3CCCC3)c3ccc(OC)cc13)O2 [Compound 611, 1-[(2Z)-2-{[5-methoxy-2-methyl-1-(2-pyrrolidin-1-ylethyl)-1H-indol-3-yl]methylidene}-3-oxo-2,3-dihydro-1-benzofuran-5-yl]-3-methylurea]

IC50 ([1]; read-out: PI3Kα Avg. IC50): 40.5 nM
IC50 ([2]; PI3Kγ Avg. IC50): 316 nM
Molecule: CNC(=O)Nc1ccc2c(c1)C(=O)/C(=C/c1c(C(=O)N(C)CCN(C)C)[nH]c3ccc(OC)cc13)O2 [Compound 602, N-[2-(dimethylamino)ethyl]-5-methoxy-N-methyl-3-[(Z)-{5-[(methylcarbamoyl)amino]-3-oxo-1-benzofuran-2(3H)-ylidene}methyl]-1H-indole-2-carboxamide]

IC50 ([1]; read-out: PI3Kα Avg. IC50): 963 nM
IC50 ([2]; PI3Kγ Avg. IC50): 1210 nM
Molecule: COc1cccc2c1c(/C=C1\Oc3cc(O)cc(O)c3C1=O)c(-c1ccccc1)n2C [Compound 497, (2Z)-4,6-dihydroxy-2-[(4-methoxy-1-methyl-2-phenyl-1H-indol-3-yl)methylene]-1-benzofuran-3(2H)-one]

IC50 ([1]; read-out: PI3Kα Avg. IC50): 2.85 nM
IC50 ([2]; PI3Kγ Avg. IC50): 209 nM
Molecule: CNC(=O)Nc1ccc2c(c1)C(=O)/C(=C/c1c(C3CCC3)n(CCN3CCN(C)CC3)c3ccc(OC)cc13)O2 [Compound 562, 1-[(2Z)-2-({2-cyclobutyl-5-methoxy-1-[2-(4-methylpiperazin-1-yl)ethyl]-1H-indol-3-yl}methylene)-3-oxo-2,3-dihydro-1-benzofuran-5-yl]-3-methylurea]

IC50 ([1]; read-out: PI3Kα Avg. IC50): 1840 nM
IC50 ([2]; PI3Kγ Avg. IC50): 8600 nM
Molecule: COc1ccc2[nH]cc(CC3Oc4cc(O)cc(O)c4C3=O)c2c1 (stereo not shown) [Example 117, 4,6-dihydroxy-2-[(5-methoxy-1H-indol-3-yl)methyl]-1-benzofuran-3(2H)-one]

IC50 ([1]; read-out: PI3Kα Avg. IC50): 4 nM
IC50 ([2]; PI3Kγ Avg. IC50): 982 nM
Molecule: CNC(=O)Nc1ccc2c(c1)C(=O)/C(=C/c1c(C)n(CCCN3CCC(O)CC3)c3ccc(OC)cc13)O2 [Compound 587, 1-[(2Z)-2-({1-[3-(4-hydroxypiperidin-1-yl)propyl]-5-methoxy-2-methyl-1H-indol-3-yl}methylene)-3-oxo-2,3-dihydro-1-benzofuran-5-yl]-3-methylurea]

IC50 ([1]; read-out: PI3Kα Avg. IC50): 3.5 nM
IC50 ([2]; PI3Kγ Avg. IC50): 830 nM
Molecule: CNC(=O)Nc1ccc2c(c1)C(=O)/C(=C/c1c(C)n(CCCN3CCCCC3)c3ccc(OC)cc13)O2 [Compound 588, 1-[(2Z)-2-{[5-methoxy-2-methyl-1-(3-piperidin-1-ylpropyl)-1H-indol-3-yl]methylene}-3-oxo-2,3-dihydro-1-benzofuran-5-yl]-3-methylurea]

IC50 ([1]; read-out: PI3Kα Avg. IC50): 477 nM
IC50 ([2]; PI3Kγ Avg. IC50): 3390 nM
Molecule: COc1ccc2c(c1)c(/C=C1\Oc3ccc(NC(=O)NCCCO)cc3C1=O)cn2CCCN(C)C [Compound 568, 1-[(2Z)-2-({1-[3-(dimethylamino)propyl]-5-methoxy-1H-indol-3-yl}methylene)-3-oxo-2,3-dihydro-1-benzofuran-5-yl]-3-(3-hydroxypropyl)urea]

IC50 ([1]; read-out: PI3Kα Avg. IC50): > 10000 nM
IC50 ([2]; PI3Kγ Avg. IC50): > 10000 nM
Molecule: COc1ccc2[nH]cc(/C=C3\Oc4ccc(NC(=O)Nc5ccccc5)cc4C3=O)c2c1 [Compound 485, 1-{(2Z)-2-[(5-methoxy-1H-indol-3-yl)methylene]-3-oxo-2,3-dihydro-1-benzofuran-5-yl}-3-phenylurea]

IC50 ([1]; read-out: PI3Kα Avg. IC50): 355 nM
IC50 ([2]; PI3Kγ Avg. IC50): > 10000 nM
Molecule: COc1ccc2c(c1)c(/C=C1\Oc3ccc(NC(=O)NC4CNC4)cc3C1=O)cn2CCN1CCN(C)CC1 [Compound 552, 1-azetidin-3-yl-3-[(2Z)-2-({5-methoxy-1-[2-(4-methylpiperazin-1-yl)ethyl]-1Hindol-3-yl}methylene)-3-oxo-2,3-dihydro-1-benzofuran-5-yl]urea]

IC50 ([1]; read-out: PI3Kα Avg. IC50): 163 nM
IC50 ([2]; PI3Kγ Avg. IC50): 1130 nM
Molecule: COc1ccc2[nH]cc(/C=C3\Oc4cc(O)cc(OC)c4C3=O)c2c1 [Compound 472, (2Z)-6-hydroxy-4-methoxy-2-[(5-methoxy-1H-indol-3-yl)methylene]-1-benzofuran-3(2H)-one]

IC50 ([1]; read-out: PI3Kα Avg. IC50): 9.5 nM
IC50 ([2]; PI3Kγ Avg. IC50): 136 nM
Molecule: CNC(=O)Nc1ccc2c(c1)C(=O)/C(=C/c1c(CN3CCN(C)CC3)[nH]c3ccc(OC)cc13)O2 [Compound 615, 1-[(2Z)-2-({5-methoxy-2-[(4-methylpiperazin-1-yl)methyl]-1H-indol-3-yl}methylidene)-3-oxo-2,3-dihydro-1-benzofuran-5-yl]-3-methylurea]
